# In ChEMBL document CHEMBL2439953, “Dimeric argininamide-type neuropeptide Y receptor antagonists: chiral discrimination between Y1 and Y4 receptors” (Bioorg Med Chem, 2013):
# Columns and labels:
# [1] = target: T1, Neuropeptide Y receptor type 4 (Homo sapiens, UniProt P50391); assay: Antagonist activity at human neuropeptide Y receptor type 4 expressed in CHO cells co-expressing Gqi5-mtAEQ assessed as inhibition of hPP-induced calcium mobilization by Aequorin assay; type: functional, cell-based
# T1 sequence (P50391 whole entry): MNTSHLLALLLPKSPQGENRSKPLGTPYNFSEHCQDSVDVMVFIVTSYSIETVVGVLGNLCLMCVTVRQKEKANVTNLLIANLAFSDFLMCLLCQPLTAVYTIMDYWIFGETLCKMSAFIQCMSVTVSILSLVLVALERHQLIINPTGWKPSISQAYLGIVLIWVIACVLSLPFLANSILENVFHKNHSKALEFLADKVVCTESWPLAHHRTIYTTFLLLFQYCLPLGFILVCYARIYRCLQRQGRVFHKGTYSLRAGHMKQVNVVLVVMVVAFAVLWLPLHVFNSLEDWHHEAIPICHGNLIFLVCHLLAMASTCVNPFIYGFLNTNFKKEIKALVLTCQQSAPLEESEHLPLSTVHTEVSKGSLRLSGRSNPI
# [2] = target: T2, Neuropeptide Y receptor type 1 (Homo sapiens) (UniProt P25929); assay: Antagonist activity at neuropeptide Y receptor type 1 in HEL assessed as inhibition of pNPY-induced calcium mobilization by Fura-2 calcium assay; type: functional
# T2 sequence (whole entry): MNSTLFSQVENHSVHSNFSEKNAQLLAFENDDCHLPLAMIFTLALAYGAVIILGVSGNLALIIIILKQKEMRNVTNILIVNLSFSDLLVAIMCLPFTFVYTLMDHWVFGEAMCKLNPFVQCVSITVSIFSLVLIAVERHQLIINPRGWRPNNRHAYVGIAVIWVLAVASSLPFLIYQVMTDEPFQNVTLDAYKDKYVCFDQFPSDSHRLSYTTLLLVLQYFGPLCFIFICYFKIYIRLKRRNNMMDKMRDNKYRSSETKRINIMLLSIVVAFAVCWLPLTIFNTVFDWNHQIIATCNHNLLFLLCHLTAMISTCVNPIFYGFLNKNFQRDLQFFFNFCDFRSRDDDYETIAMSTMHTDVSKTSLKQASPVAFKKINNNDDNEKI
# [3] = target: T3, Neuropeptide Y receptor type 1 (Homo sapiens, UniProt P25929); assay: Displacement of [3H]UR-MK114 from human neuropeptide Y receptor type 1 expressed in human MCF7 cells; type: cell-based
# T3 sequence (P25929 whole entry): T2 sequence (whole entry)
# [4] = target: T4, Neuropeptide Y receptor type 5 (Homo sapiens, UniProt Q15761); assay: Binding affinity to human neuropeptide Y receptor type 5 receptor expressed in HEC-1B cells using Cy5-pNPY by flow cytometric analysis; type: cell-based
# T4 sequence (Q15761 whole entry): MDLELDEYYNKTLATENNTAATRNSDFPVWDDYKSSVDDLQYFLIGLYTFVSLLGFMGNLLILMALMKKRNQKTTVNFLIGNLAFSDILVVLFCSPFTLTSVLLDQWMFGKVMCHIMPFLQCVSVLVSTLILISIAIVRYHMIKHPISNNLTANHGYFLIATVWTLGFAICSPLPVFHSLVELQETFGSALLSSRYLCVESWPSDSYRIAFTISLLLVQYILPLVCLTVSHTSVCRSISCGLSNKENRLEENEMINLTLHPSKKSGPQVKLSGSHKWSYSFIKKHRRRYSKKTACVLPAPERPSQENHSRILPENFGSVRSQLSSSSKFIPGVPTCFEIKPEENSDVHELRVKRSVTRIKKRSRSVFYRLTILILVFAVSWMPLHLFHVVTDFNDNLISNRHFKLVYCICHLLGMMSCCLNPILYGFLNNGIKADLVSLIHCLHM
# [5] = target: T1, Neuropeptide Y receptor type 4; assay: Binding affinity to human neuropeptide Y receptor type 4 receptor expressed in CHO cells using Cy5-[K4]-hPP by flow cytometric analysis; type: cell-based
# [6] = target: T3, Neuropeptide Y receptor type 1; assay: Displacement of [3H]UR-MK114 from human neuropeptide Y receptor type 1 expressed in human SK-N-MC cells; type: cell-based
# [7] = target: T5, Neuropeptide Y receptor type 2 (Homo sapiens, UniProt P49146); assay: Binding affinity to human neuropeptide Y receptor type 2 receptor expressed in CHO cells using Cy5-pNPY by flow cytometric analysis; type: cell-based
# T5 sequence (P49146 whole entry): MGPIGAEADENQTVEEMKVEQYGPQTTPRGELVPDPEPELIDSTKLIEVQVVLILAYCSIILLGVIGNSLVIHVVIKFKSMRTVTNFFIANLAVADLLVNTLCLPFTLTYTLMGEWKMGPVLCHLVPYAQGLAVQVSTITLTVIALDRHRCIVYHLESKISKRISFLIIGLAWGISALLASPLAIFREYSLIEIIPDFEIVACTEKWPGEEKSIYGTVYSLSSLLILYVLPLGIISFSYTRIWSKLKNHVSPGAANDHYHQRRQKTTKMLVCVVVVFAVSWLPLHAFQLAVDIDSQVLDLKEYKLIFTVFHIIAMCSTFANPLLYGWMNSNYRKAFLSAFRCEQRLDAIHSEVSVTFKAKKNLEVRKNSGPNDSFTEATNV
Compound,Kb [1],Kb [2],Ki [3],Ki [4],Ki [5],Ki [6],Ki [7]
N/C(=N/C(=O)CCCCCCC(=O)/N=C(\N)NCCC[C@@H](NC(=O)C(c1ccccc1)c1ccccc1)C(=O)NCc1ccc(O)cc1)NCCC[C@@H](NC(=O)C(c1ccccc1)c1ccccc1)C(=O)NCc1ccc(O)cc1,98 nM,3.5 nM,,,,,
NCCN(CCNC(=O)CCC(=O)NCCCCCCNC(=O)/N=C(\N)NCCC[C@H](NC(=O)CC1(CC(=O)N2CCN(C3c4ccccc4NC(=O)c4ccccc43)CC2)CCCC1)C(=O)NCCn1c(=O)n(-c2ccccc2)n(-c2ccccc2)c1=O)CCNC(=O)CCC(=O)NCCCCCCNC(=O)/N=C(\N)NCCC[C@@H](NC(=O)C(c1ccccc1)c1ccccc1)C(=O)NCc1ccc(O)cc1 (mixture of isomers),72 nM,1.5 nM,260 nM,> 5000 nM,910 nM,230 nM,85 nM
CCC(=O)NCCN(CCNC(=O)c1ccc(C(=O)NCCOCCOCCNC(=O)/N=C(/N)NCCC[C@@H](NC(=O)C(c2ccccc2)c2ccccc2)C(=O)NCc2ccc(O)cc2)cc1)CCNC(=O)c1ccc(C(=O)NCCOCCOCCNC(=O)/N=C(/N)NCCC[C@@H](NC(=O)C(c2ccccc2)c2ccccc2)C(=O)NCc2ccc(O)cc2)cc1,36 nM,,110 nM,> 5000 nM,410 nM,64 nM,> 5000 nM
NCCN(CCNC(=O)c1ccc(C(=O)NCCOCCOCCNC(=O)/N=C(/N)NCCC[C@@H](NC(=O)C(c2ccccc2)c2ccccc2)C(=O)NCc2ccc(O)cc2)cc1)CCNC(=O)c1ccc(C(=O)NCCOCCOCCNC(=O)/N=C(/N)NCCC[C@@H](NC(=O)C(c2ccccc2)c2ccccc2)C(=O)NCc2ccc(O)cc2)cc1,20 nM,0.25 nM,48 nM,> 5000 nM,130 nM,,
NCCN(CCNC(=O)CCC(=O)NCCOCCOCCNC(=O)/N=C(/N)NCCC[C@@H](NC(=O)C(c1ccccc1)c1ccccc1)C(=O)NCc1ccc(CNC(N)=O)cc1)CCNC(=O)CCC(=O)NCCOCCOCCNC(=O)/N=C(/N)NCCC[C@@H](NC(=O)C(c1ccccc1)c1ccccc1)C(=O)NCc1ccc(CNC(N)=O)cc1,96 nM,4.2 nM,210 nM,> 5000 nM,290 nM,230 nM,4000 nM
NCCN(CCNC(=O)CCC(=O)NCCOCCOCCNC(=O)/N=C(/N)NCCC[C@@H](NC(=O)C(c1ccccc1)c1ccccc1)C(=O)NCc1ccc(O)cc1)CCNC(=O)CCC(=O)NCCOCCOCCNC(=O)/N=C(/N)NCCC[C@@H](NC(=O)C(c1ccccc1)c1ccccc1)C(=O)NCc1ccc(O)cc1,41 nM,1.1 nM,37 nM,> 5000 nM,470 nM,25 nM,1800 nM
NCCN(CCNC(=O)CCCC(=O)/N=C(/N)NCCC[C@@H](NC(=O)C(c1ccccc1)c1ccccc1)C(=O)NCc1ccc(O)cc1)CCNC(=O)CCCC(=O)/N=C(/N)NCCC[C@@H](NC(=O)C(c1ccccc1)c1ccccc1)C(=O)NCc1ccc(O)cc1,73 nM,4.2 nM,,> 5000 nM,390 nM,30 nM,620 nM
NCCOCCOCCNC(=O)/N=C(/N)NCCC[C@H](NC(=O)C(c1ccccc1)c1ccccc1)C(=O)NCc1ccc(CNC(N)=O)cc1,> 5000 nM,> 5000 nM,,,> 5000 nM,> 5000 nM,
NCCN(CCNC(=O)CCCC(=O)NCCOCCOCCNC(=O)/N=C(/N)NCCC[C@@H](NC(=O)C(c1ccccc1)c1ccccc1)C(=O)NCc1ccc(O)cc1)CCNC(=O)CCCC(=O)NCCOCCOCCNC(=O)/N=C(/N)NCCC[C@@H](NC(=O)C(c1ccccc1)c1ccccc1)C(=O)NCc1ccc(O)cc1,44 nM,,50 nM,> 5000 nM,290 nM,29 nM,1500 nM
NCCN(CCNC(=O)CCC(=O)NCCOCCOCCNC(=O)/N=C(/N)NCCC[C@H](NC(=O)C(c1ccccc1)c1ccccc1)C(=O)NCc1ccc(CNC(N)=O)cc1)CCNC(=O)CCC(=O)NCCOCCOCCNC(=O)/N=C(/N)NCCC[C@H](NC(=O)C(c1ccccc1)c1ccccc1)C(=O)NCc1ccc(CNC(N)=O)cc1,140 nM,110 nM,,> 5000 nM,310 nM,3100 nM,1100 nM
N=C(N)NCCC[C@@H](NC(=O)C(c1ccccc1)c1ccccc1)C(=O)NCc1ccc(CNC(=O)NCCCCNC(=O)CCCC(=O)NCCN(CCN)CCNC(=O)CCCC(=O)NCCCCNC(=O)NCc2ccc(CNC(=O)[C@@H](CCCNC(=N)N)NC(=O)C(c3ccccc3)c3ccccc3)cc2)cc1,> 5000 nM,120 nM,430 nM,> 5000 nM,3500 nM,330 nM,> 5000 nM
